Test results from patent publication US20240122938A1, “METHODS AND COMPOSITIONS FOR TREATING UVEAL MELANOMA” (INSERM (INSTITUT NATIONAL DE LA SANTÉ ET DE LA RECHERCHE …, priority 2019, published 2024).

How the values were obtained:
Mel270 cells = assay: Cell death / alive cells by Annexin V/DAPI FACS; assay type: cell-based, human
Method: FIG. 5: PERK dampens ABT-263 killing activity. (A) Q-PCR analysis of PERK level in Mel270 uveal melanoma cells treated with control (siCtl) or PERK (siPERK) siRNA for 48 hr. (B) Mel270 cells were treated with control (siCtl) or PERK (siPERK) siRNA for 48 hrs before being exposed to ABT-263 3 μM for 48 hr. FACS analyses of Annexin V/DAPI double staining in […] indicate alive (white) or dead (early, late apoptosis and necrosis in light grey) cells. (C) Mel270 cells were treated with ABT-263 5 μM or GSK2606414 5 μM alone or in combination for 48 h.
Cells were seeded at a density of 100 000 cells/well, in 6-well plate and treated with ABT-263 for indicated time. Cells were harvested using accutase enzyme, washed twice with ice-cold phosphate-buffered saline, resuspended in a buffer (Hepes 250 mM, NaCl 150 mM, KCl 5 mM, MgCl2 2 mM, CaCl2) 2 mM) with DAPI (1 μg/ml) and Annexin V-Alexa Fluor 647 conjugate (1/100) and incubated for 15 minutes at room temperature (25° C.) in the dark. Samples were immediately analyzed by a flow cytometer (MACS QUANT) using a laser at 405 nm excitation with a bandpass filter at 425 nm and 475 nm for DAPI detection and a laser at 635 nm excitation with a bandpass filter at 650 nm and 665 nm for Alexa Fluor 647 dye. Annexin and DAPI mono- or double positive cells were counted as dead cells.

XBP1 splicing = XBP1 splicing (QRT-PCR); assay type: cell-based, human; conditions: both primary cells and metastatic OMM1 cells
Method: The mRNA was isolated using TRIzol (Invitrogen) according to a standard procedure. QRT-PCR was performed using SYBR® Green I (Eurogentec, Seraing, Belgium) and Multiscribe Reverse Transcriptase (Applied Biosystems) and subsequently monitored using the ABI Prism 7900 Sequence Detection System (Applied Biosystems, Foster City, CA). The detection of the SB34 gene was used to normalize the results. Spliced Xbp1 primers were previously reported27. Primer sequences for each cDNA were designed using either Primer Express Software (Applied Biosystems) or qPrimer depot (http://primerdepot.nci.nih.gov), and these sequences are available upon request.

[1] = single agent, phase I/II; cited from earlier work
[2] = test system: ATF4 and CHOP in 92.1 cells; assay: Western blot of ER stress molecules; assay type: cell-based, human
Method: Western blotting was performed as previously described 25,26. Briefly, cell lysates (30 μg) were separated using SDS-PAGE, transferred onto a PVDF membrane and subsequently exposed to the appropriate antibodies, anti-BCL2 (ms-123-PO) was from neomarker, anti-caspase 3 (#610323) was from BD, anti-BAX (#8429) was from sigma, anti-PARP (#9542), anti-BCL-XL (#2762), anti-caspase 9 (#9502) and anti-PUMA (#4976) were from Cell Signaling Technology Inc, anti-MCL1 (#sc-819), anti-NOXA (#56169), and anti-HSP90 (#sc-13119) were from Santa Cruz biotechnology. The proteins were visualized using the ECL system (Amersham). The western blots shown are representative of at least 3 independent experiments.

[3] = test system: metastatic OMM1 xenografts; assay: Subcutaneous tumor xenograft; assay type: in vivo, athymic nude mice
Method: (§1) FIG. 2. Effect of ABT-263 on tumor growth in vivo effects. (A) Primary Mel270 and (B) metastatic OMM1 uveal melanoma cells were subcutaneously engrafted into athymic nude mice. Once the tumours reached 100 mm3, mice were treated daily with ABT-263. The arrow indicates the start of the treatment. The growth tumor curves were determined by measuring the tumor volume using the equation V=(L Å˜W2)/2. […] (C-D) Sub-cutaneous tumor weight from control (Ct) and ABT-263-treated mice is shown. Animal experiments were performed in accordance with French law and approved by a local institutional ethical committee. The animals were maintained in a temperature-controlled facility (22° C.) on a 12-h light/dark cycle and provided free access to food (standard laboratory chow diet from UAR, Epinay-S/Orge, France). Human Mel270 uvealmelanoma cells were subcutaneously inoculated into 8-week-old female, immune-deficient, athymic, nude FOXN1nu mice (Harlan Laboratory). When the tumors became palpable (0.1-0.2 cm3), the mice received an intraperitoneal injection of ABT-263 (50 mg/kg), dissolved in 10% DMSO 6 times per week. Control mice were injected with DMSO alone. The growth tumor curves were determined after measuring the tumor volume using the equation V=(L×W2)/2. At the end of the experiment, the mice were euthanized by cervical dislocation.

Mel270 xenografts = assay: Subcutaneous tumor xenograft; assay type: in vivo, athymic nude mice; conditions: established Mel270 xenografts; 50 mg/kg intraperitoneal
Method: as §1

[4] = test system: 92.1 uveal melanoma cells xenografts; assay: Subcutaneous tumor xenograft; assay type: in vivo, athymic nude mice; conditions: 92.1 xenografts
Method: FIG. 3. ABT-263 reduces tumor growth in vivo. (A) Primary 92.1 uveal melanoma cells were subcutaneously engrafted into athymic nude mice. Once the tumours reached 100 mm3, mice were treated daily with ABT-263. The arrow indicates the start of the treatment. The growth tumor curves were determined by measuring the tumor volume using the equation V=(L Å˜W2)/2. […] (B) Sub-cutaneous tumor weight from control (Ct) and ABT-263-treated mice is shown. (C) Blood biochemical analysis of mice xenografted with OMM1 cells. Serum activity of alanine transaminase (ALT) and aspartate transaminase (AST) was measured in control and ABT-263 by spectrophotometric methods after the end of treatment. Data are presented as mean±SD (n=5 per group). Animal experiments were performed in accordance with French law and approved by a local institutional ethical committee. The animals were maintained in a temperature-controlled facility (22° C.) on a 12-h light/dark cycle and provided free access to food (standard laboratory chow diet from UAR, Epinay-S/Orge, France). Human Mel270 uvealmelanoma cells were subcutaneously inoculated into 8-week-old female, immune-deficient, athymic, nude FOXN1nu mice (Harlan Laboratory). […] The growth tumor curves were determined after measuring the tumor volume using the equation V=(L×W2)/2. […]

Structure (SMILES): CC1(C)CCC(c2ccc(Cl)cc2)=C(CN2CCN(c3ccc(C(=O)NS(=O)(=O)c4ccc(N[C@H](CCN5CCOCC5)CSc5ccccc5)c(S(=O)(=O)C(F)(F)F)c4)cc3)CC2)C1 [ABT-263, 4-[4-[[2-(4-chlorophenyl)-5,5-dimethyl-1-cyclohexen-1-yl]methyl]-1-piperazinyl]-N-[[4-[[(1R)-3-(4-morpholinyl)-1-[(phenylthio)methyl]propyl]amino]-3-[(trifluoromethyl)sulfonyl]phenyl]sulfonyl]-benzamide]
- cell death (Mel270 cells; ABT-263 3 μM): do not induce cell death
- PARP cleavage and alive cell percentage, used alone (Mel270 cells; ABT-263 3 μM 48 hr): relative low effect
- ABT-263 effect on viable cells combined with GSK2606414 (Mel270 cells; ABT-263 5 μM + GSK2606414 5 μM, 48 h): improved
- ABT-263 effects and killing efficacy combined with PERK siRNA (Mel270 cells; siPERK 48 hrs then ABT-263 3 μM 48 hr): significantly improved
- XBP1 splicing (XBP1 splicing): significantly higher
- side effects [1]: thrombocytopenia
- ATF4 and CHOP level [2]: enhanced
- excised tumor weight versus control group ([3]; end of experiment): weighed significantly less
- tumor growth ([3]; metastatic OMM1 xenografts, in some mice total tumor disappearance): marked tumor regression
- tumor growth (Mel270 xenografts): partially effective
- tumor growth [4]: almost no effect
